pIC50: −log10 of the molar value.
How the values were obtained:
[1] = Stability study in 1% HCl (representative of gastric acid); type: physicochemical; details: 37° C., approximately 21 hours, LC-MS
Protocol: (§1) Three novel compounds i.e., tert-butyl (2,5-dimethoxy-4-methylphenethyl)carbamate (Preparative Example 18), tert-butyl (2,5-dimethoxyphenethyl)carbamate (Preparative Example 7), and N-(3,4,5-Trimethoxyphenethyl-2-hydroxy-acetophenon imine (Preparative Example 17) were tested for their stability in 1% hydrochloric acid (HCl) as well as in phosphate buffers at pH 7.4 and pH 8.0. These conditions were selected to provide insights into the chemical stability of compounds at a pH values similar to conditions within the human body. The diluted hydrochloric acid (pH 1) represents gastric acid within the stomach whereas the potassium phosphate buffers at pH 7.4 and pH 8.0 simulate the conditions in the human blood and small intestine, respectively.
(§2) 4 mg of each test compound was diluted in either HCl solution or phosphate buffer (0.1 M) to give a solution of 1 mg/ml. Regarding the acidic testing with hydrochloric acid, 2 ml of aqueous test compound solutions were then added to 2 ml of 0.64 M HCl, yielding a final HCl concentration of 0.32 M (pH 0.5). Since all compounds tested, represent «free bases», a minimal amount of 100-200 microliters of dimethylsulfoxide (DMSO) has been added to avoid aggregation effects during testing. […] Concentrations of parent compound were analyzed at various timepoints using LC-MS. […]

human DAT = target: T1, human DAT (Homo sapiens, UniProt Q01959); experiment: Uptake inhibition assay, DAT; type: cell-based
T1 construct: expressed in transfected cells
Protocol: (§3) Human embryonic kidney (HEK) 293 cells stably expressing human DAT, NET or SERT were maintained in humidified atmosphere (37° C., 5% CO2) in Dulbecco's Modified Eagle Medium (DMEM), supplemented with 10% heat-inactivated fetal calf serum (FCS), streptomycin (100 μg×100 mL^−1) and penicillin (100 U×100 mL^−1). Geneticin (50 μg×mL^−1) was used as selection antibiotic.
(§4) One day before the experiment, HEK293 cells expressing the respective transporters (DAT, NET or SERT) were seeded onto poly-D-lysine coated 96 well plates at a density of 30,000 cells per well in a final volume of 200 μL. For uptake experiments, the cell culture medium was replaced with […] Krebs-HEPES buffer (KHB; 25 mM HEPES, 120 mM NaCl, 5 mM KCl, 1.2 mM CaCl2, 1.2 mM MgSO4, and 5 mM D-glucose, pH 7.3). Then, the buffer was replaced with various concentrations of test compounds for 5 minutes; subsequent to that, 0.1 μM [^3H]5-HT (SERT), 0.1 μM [^3H]dopamine (DAT), or 0.05 μM [^3H]MPP^+ (NET) in KHB was added to yield a total volume of 50 μL in the well. For determination of non-specific uptake, paroxetine was used in case of SERT (3 μM), vanoxerine (also known as GBR12909) for DAT and NET (50 μM).
(§5) Uptake was terminated after 60 s (SERT) or 180 s (DAT, NET) by washing the cells with 200 μL ice-cold KHB. Subsequently, the cells were lysed with 200 μL Ultima Gold™ XR liquid scintillation cocktail, and the amount of tritium in the cells was measured with a Wallac 1450 MicroBeta® TriLux liquid scintillation counter. Monoamine uptake data were fitted by nonlinear regression, Vmax and Km values were calculated from Michaelis Menten's least-squares fit with GraphPad Prism (Prism 9.0.2, GraphPad Software, San Diego, CA, USA).
(§6) RT054 and RT056 were tested in both uptake inhibition and release assays, and the corresponding prodrug AM176 was tested in uptake inhibition assays. AM176 was tested either as the undecomposed prodrug or after treatment with 0.5% HCl at 37° C. for 24 hours in order to simulate digestion of the prodrug by gastric acid inside the body after peroral administration.

human SERT = target: T2, human SERT (Homo sapiens, UniProt P31645); experiment: Uptake inhibition assay, SERT; type: cell-based
T2 construct: expressed in transfected cells
Protocol: as §3, §4, §5, §6

human NET = target: T3, human NET (Homo sapiens, UniProt P23975); experiment: Uptake inhibition assay, NET; type: cell-based
T3 construct: expressed in transfected cells
Protocol: as §3, §4, §5, §6

[2] = patients; cited from earlier work
[3] = Stability study in phosphate buffers pH 7.4 and pH 8.0; type: physicochemical; details: phosphate buffer pH 7.4/pH 8.0, 37° C.
Protocol: as §1, §2

[4] = cited from earlier work
[5] = HEK293 cells stably expressing DAT, [3H]dopamine
[6] = HEK293 cells stably expressing SERT, [3H]5-HT
[7] = HEK293 cells stably expressing NET, [3H]MPP+

T2 sequence (P31645 whole entry): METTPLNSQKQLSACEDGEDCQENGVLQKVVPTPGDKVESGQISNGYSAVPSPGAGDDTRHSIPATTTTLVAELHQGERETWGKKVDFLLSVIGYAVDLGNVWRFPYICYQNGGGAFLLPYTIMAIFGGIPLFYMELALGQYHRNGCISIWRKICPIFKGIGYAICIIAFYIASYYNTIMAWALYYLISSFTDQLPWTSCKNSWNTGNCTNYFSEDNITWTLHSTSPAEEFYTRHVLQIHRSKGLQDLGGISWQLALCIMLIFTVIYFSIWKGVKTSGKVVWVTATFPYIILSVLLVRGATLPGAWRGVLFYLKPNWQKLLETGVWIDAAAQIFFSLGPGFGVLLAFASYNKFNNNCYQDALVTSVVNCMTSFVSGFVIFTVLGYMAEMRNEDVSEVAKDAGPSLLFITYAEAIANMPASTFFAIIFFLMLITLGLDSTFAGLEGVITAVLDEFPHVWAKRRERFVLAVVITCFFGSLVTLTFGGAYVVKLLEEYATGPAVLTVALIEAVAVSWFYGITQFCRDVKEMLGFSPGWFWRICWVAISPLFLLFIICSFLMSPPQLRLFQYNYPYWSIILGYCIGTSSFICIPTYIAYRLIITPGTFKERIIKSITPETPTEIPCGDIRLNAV
T3 sequence (P23975 whole entry): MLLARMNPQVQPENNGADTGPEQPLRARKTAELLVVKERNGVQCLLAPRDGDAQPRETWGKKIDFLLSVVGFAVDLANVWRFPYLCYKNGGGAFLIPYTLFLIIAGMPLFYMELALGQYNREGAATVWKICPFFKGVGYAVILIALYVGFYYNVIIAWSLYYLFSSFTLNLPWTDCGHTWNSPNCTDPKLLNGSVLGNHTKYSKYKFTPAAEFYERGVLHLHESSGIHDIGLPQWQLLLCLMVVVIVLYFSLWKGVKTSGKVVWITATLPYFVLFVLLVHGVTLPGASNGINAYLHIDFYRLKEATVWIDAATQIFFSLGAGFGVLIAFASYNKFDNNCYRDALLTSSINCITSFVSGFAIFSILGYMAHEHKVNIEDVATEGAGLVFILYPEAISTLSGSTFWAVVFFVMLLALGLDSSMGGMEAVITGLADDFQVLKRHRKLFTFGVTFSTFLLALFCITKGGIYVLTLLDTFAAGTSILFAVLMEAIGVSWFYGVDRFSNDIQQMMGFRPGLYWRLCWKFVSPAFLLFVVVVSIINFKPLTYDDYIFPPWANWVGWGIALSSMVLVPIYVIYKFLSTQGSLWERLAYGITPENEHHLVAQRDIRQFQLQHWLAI
T1 sequence (Q01959 whole entry): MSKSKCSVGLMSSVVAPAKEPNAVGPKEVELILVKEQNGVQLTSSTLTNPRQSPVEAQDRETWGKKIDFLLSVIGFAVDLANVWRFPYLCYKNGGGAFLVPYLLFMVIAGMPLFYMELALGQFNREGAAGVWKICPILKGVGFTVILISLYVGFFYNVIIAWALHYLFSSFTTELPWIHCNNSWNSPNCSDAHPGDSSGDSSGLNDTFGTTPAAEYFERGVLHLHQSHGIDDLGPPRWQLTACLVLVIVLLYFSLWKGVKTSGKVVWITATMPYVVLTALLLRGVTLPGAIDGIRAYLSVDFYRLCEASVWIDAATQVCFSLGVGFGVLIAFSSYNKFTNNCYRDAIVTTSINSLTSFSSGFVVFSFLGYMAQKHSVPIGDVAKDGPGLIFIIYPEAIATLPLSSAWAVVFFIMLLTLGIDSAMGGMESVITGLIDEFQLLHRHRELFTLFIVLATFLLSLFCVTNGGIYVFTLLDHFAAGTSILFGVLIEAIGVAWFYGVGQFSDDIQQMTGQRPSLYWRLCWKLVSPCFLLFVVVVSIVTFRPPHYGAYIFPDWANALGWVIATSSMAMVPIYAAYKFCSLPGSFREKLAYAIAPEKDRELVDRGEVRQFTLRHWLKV

COc1cc(CC/N=C(\C)c2ccccc2O)cc(OC)c1OC
Degradation in 1% HCl to the corresponding drug [1]: more retarded degradation behavior

CNC(C)Cc1ccc2c(c1)OCS2 (centres unmarked) [RT056, Benzoxathiol-6-yl-N-methyl-propan-2-amine]
pIC50 (human DAT; [5]): 6.05
pIC50 (human SERT; [6]): 5.35
pIC50 (human NET; [7]): 5.74

COc1cc(CCN)cc(OC)c1OC [Mescaline, mescaline]
oral dose to cause the desired psychedelic state [2]: over 200 mg

COc1cc(CCNC(=O)OC(C)(C)C)c(OC)cc1C [Preparative Example 18, t-butyl-(2,5-Dimethoxy-4-methylphenethyl)carbamate]
Degradation at neutral and basic conditions [3]: complete stability

COc1ccc(OC)c(CCNC(=O)OC(C)(C)C)c1 [Preparative Example 7, tert.-butyl-(2,5-Dimethoxyphenethyl)carbamate]
Degradation at neutral and basic conditions [3]: complete stability

CC(N)Cc1ccc2c(c1)OCS2 (centres unmarked) [RT054, Benzoxathiol-6-yl-propan-2-amine, reference compound]
pIC50 (human DAT; [5]): 5.89
pIC50 (human SERT; [6]): 5.44
pIC50 (human NET; [7]): 6.10

CC(Cc1ccc2c(c1)OCS2)N(C)C(=O)OC(C)(C)C (centres unmarked) [AM176, tert-butyl (1-benzo[d][1,3]oxathiole-6-yl)propan-2-yl(methyl)carbamate]
pIC50 (human DAT; HCl-treated (0.5% HCl at 37° C. for 24 hours), HEK293 cells expressing DAT): 5.47
Interaction with DAT in uptake inhibition assay (in words) (human DAT; after pre-treatment with HCl): inhibits substrate-uptake via all monoamine transporters in a competitive manner
Interaction with DAT in uptake inhibition assay (in words) (human DAT; without pre-treatment with HCl): no interaction
pIC50 (human SERT; HCl-treated (0.5% HCl at 37° C. for 24 hours), HEK293 cells expressing SERT): 4.74
Interaction with SERT in uptake inhibition assay (in words) (human SERT; after pre-treatment with HCl): inhibits substrate-uptake via all monoamine transporters in a competitive manner
Interaction with SERT in uptake inhibition assay (in words) (human SERT; without pre-treatment with HCl): no interaction
pIC50 (human NET; HCl-treated (0.5% HCl at 37° C. for 24 hours), HEK293 cells expressing NET): 5.04
Interaction with NET in uptake inhibition assay (in words) (human NET; after pre-treatment with HCl): inhibits substrate-uptake via all monoamine transporters in a competitive manner
Interaction with NET in uptake inhibition assay (in words) (human NET; without pre-treatment with HCl): no interaction

NCCc1ccccc1 [phenethylamine (PEA), phenethylamine]
half-life after oral consumption [4]: approximately 10 minutes

Source: patent US20260085036A1 (MiHKAL GmbH, priority 2022, published 2026)
